Test results published in patent US4719220A, “15(R)-5-fluoroprostacyclins, pharmaceutical compositions and anti-thrombotic methods of use thereof” (G. D. Searle & Co., priority 1986, dated 1988).
Structures can show the parent of a compound that is named as a salt. Values belong to the compound of their own block, whether it stands above or below them.

Columns and labels:
[1] = test system: mean blood pressure / platelet aggregation; details: sodium salts, cited from earlier work; for ratio of blood pressure lowering activity and platelet aggregation inhibiting activity: dose for 20% lowering of mean blood pressure / minimum concentration for 50% inhibition of aggregation, PGI2 = 1; for platelet aggregation inhibition in comparison with blood pressure lowering, compared to PGI2: EP Publication No. 0054795
mean arterial pressure [2] = test: Hypotensive Activity in Normotensive Rats; type: in vivo, normotensive Sprague-Dawley rats; details: Table II; for ED (25 mm Hg): Rattus norvegicus, iv, bolus i.v., dose lowering pressure 25 mm Hg, read-out: Blood Pressure ED25; for Therapeutic Index (Blood Pressure ED25 / Anti-Aggregatory): ED25 blood pressure over ED50 ADP-thrombocytopenia
Protocol: Hypotensive Activity in Normotensive Rats.
Normotensive Sprague-Dawley rats (weighing 400 to 500 g) are anesthetized wrth 100 mg/kg barbital/25 mg/kg pentobarbital intraperitoneally. The jugular vein and carotid artery are then cannulated with polyethylene-50 tubing (for drug administration and blood pressure measurement, respectively). A tracheotomy tube is inserted and animals breath 100% O2 spontaneously.
Also, body temperature is maintained at 37° C. with a thermister probe and heat lamp. After a 10 to 15 minute stabilization period, bolus i.v. injections of compound are given and responses (decrease in mean arterial pressure in mm Hg) are recorded. A linear regression analysis is then performed on the data to yield the following information:
EDO --threshold dose or dose at which an effect is first observed.
ED50 --the dose which causes 50% of the maximal response slope of the regression line in mm Hg.
When blood pressure lowering effects are minimal, an ED50 cannot be determined and, instead, an ED25 (dose which lowers the maximal pressure 25 mm Hg) is calculated.

[3] = test system: ADP-induced platelet aggregation; test: In vitro ADP aggregation (platelet-rich plasma); type: cell-based; details: Table I; rat platelet-rich plasma, ADP 1-2 uM
Protocol: Rationale: The changes in optical density resulting from ADP-stimulation of platelet-rich plasma is used to identify compounds which inhibit or reverse platelet activation.
1. Platelet-rich plasma (PRP) is obtained from citrated whole rat blood.
2. Compound solutions are prepared at the initial screening dose of 1×1O^-4 M.
3. The prostacyclin (PGI2) standard is prepared in 0.lM NaOH-glycine (pH 10.0) over a range of 10^-9 -10^-8 M.
4. ADP in saline is added to PRP over a range of 1-2 uM to determine a concentration eliciting maximum aggregation within one minute.
5. PRP containing standard or test compound is preincubated for 1 minute and then stimulated with ADP. Vehicle controls are tested simultaneously.
6. The aggregation wave generated is monitored until the reversal phase is observed.
7. Platelet aggregation is quantified as the units of depth between the baseline and maximum depth.
8. Dose-response curves are generated for percent inhibition of ADP-induced platelet aggregation.
9. In vitro activity of the compounds screened is assessed by comparison of IC50 (M) with that of PGI2.

[4] = test system: ADP-Thrombocytopenia (platelet numbers); test: In vivo ADP-thrombocytopenia; parameters: species or system rat; details: rats; for In vivo (ADP-Thrombocytopenia) ED50: Table I, infusion right jugular vein five minutes, ADP 0.5 mg/kg; for Anti-Aggregatory in vivo (ADP-Thrombocytopenia) ED50: Table II
Protocol: In vivo ADP-thrombocytopenia
Vehicle/compound in saline is infused for five minutes in the right jugular vein of rats (400-500 g) anesthetized with pentobarbital. Adenosine diphosphate (0.5 mg/kg) in saline is immediately infused for one minute in the left jugular vein. Blood samples are drawn (1:10 into 3.8% citrate) and platelets counted on a Coulter counter and platelet numbers in treated animals are compared to controls. The ED50 (effectiVe dose in 50% of treated animals--μg/kg/minute) for compound activity is calculated from linear regression.

mean arterial pressure [5] = test: Hexamethonium Rat hypotensive activity (spontaneously hypertensive rats); type: in vivo; details: iv bolus
Protocol: Hexamethonium Rat (Duration)
Spontaneously hypertensive rats (300-400 g.) are anesthetized with 100 mg/kg barbital/25 mg/kg pentobarbital ip. The jugular vein and carotid artery are then cannulated with polyethylene-50 tubing (for drug administration and blood pressure measurement, respectively). A tracheotomy tube is inserted and animals breathe 100% O2 spontaneously. Body temperature is maintained at 37° C. with a thermister probe and heat lamp. Rats are then dosed with 1 mg/kg hexamethonium, iv bolus. After a 10-minute stabilization period, animals are dosed with compound. All compounds are dissolved in either glycine buffer or saline and given in a volume of 1 ml kg. Approximate ED50 doses are administered iv bolus and mean arterial pressure (MAP) is recorded every 30 seconds for 5 minutes, then every minute for a 15-20 minute period or until pressure returns to baseline. Changes in MAP (compared to pre-treatment values) are analyzed with a paired t-test.

blood pressure = details: U.S. Pat. No. 4,178,367; cited from earlier work

Compound: CCCCCC(O)C=CC1C(O)CC2OC(=C(Cl)CCCC(=O)[O-])CC21.[Na+] (stereo not drawn) [5-chloro derivative, 5-chloro-PGI2 sodium salt]
ratio of blood pressure lowering activity and platelet aggregation inhibiting activity [1]: 4
platelet aggregation inhibition in comparison with blood pressure lowering, compared to PGI2 [1]: stronger activities with respect to the inhibition of platelet aggregation in comparison with their blood pressure lowering activities compared to PGI2

Compound: CCCCCC(O)C=CC1C(O)CC2OC(=CCCCC(=O)[O-])C(F)C21.[Na+] (stereo not drawn) [7-fluoro derivative, 7-fluoro-PGI2 sodium salt]
ratio of blood pressure lowering activity and platelet aggregation inhibiting activity [1]: 32
platelet aggregation inhibition in comparison with blood pressure lowering, compared to PGI2 [1]: stronger activities with respect to the inhibition of platelet aggregation in comparison with their blood pressure lowering activities compared to PGI2

Compound: O=C(O)CCC[C@@H](F)C1=C[C@@H]2[C@@H](/C=C/[C@@H](O)C3CCCC3)[C@H](O)C[C@@H]2O1 [(5R,15S)]
ED (25 mm Hg) (mean arterial pressure [2]): 0.0026 mg/kg
Therapeutic Index (Blood Pressure ED25 / Anti-Aggregatory) (mean arterial pressure [2]): 0.87
IC50 [3]: 190 nM
In vivo (ADP-Thrombocytopenia) ED50 [4]: 3.0 µg/kg/min
Anti-Aggregatory in vivo (ADP-Thrombocytopenia) ED50 [4]: 3.0 µg/kg/min
Blood Pressure Hexamethonium Rat, Blood Pressure/dose (decrease) (mean arterial pressure [5]; 10 μg/kg): -47 mm/Hg

IC50 [3]: 100 nM
Compound: O=C(O)CCC[C@H](F)C1=C[C@@H]2[C@@H](/C=C/[C@@H](O)C3CCCC3)[C@H](O)C[C@@H]2O1 [(5S,15S)]
In vivo (ADP-Thrombocytopenia) ED50 [4]: 2.3 µg/kg/min
Blood Pressure Hexamethonium Rat, Blood Pressure/dose (decrease) (mean arterial pressure [5]; 10 μg/kg): -42 mm/Hg

IC50 [3]: 8600 nM
Compound: O=C(O)CCC[C@H](F)C1=C[C@@H]2[C@@H](/C=C/[C@H](O)C3CCCC3)[C@H](O)C[C@@H]2O1 [(5S,15R), 15-cyclopentyl-6,9α-Epoxy-5S-fluoro-11α, 15R-dihydroxy-16,17,18,19,20-pentanorprosta-6,13E-dien-1-oic acid, sodium salt]
In vivo (ADP-Thrombocytopenia) ED50 [4]: 3.3 µg/kg/min
Blood Pressure Hexamethonium Rat, Blood Pressure/dose (decrease) (mean arterial pressure [5]; 100 μg/kg): Inactive

IC50 [3]: 630 nM
Compound: O=C(O)CCC/C=C1/C[C@@H]2[C@@H](/C=C/[C@H](O)C3CCCC3)[C@H](O)C[C@@H]2O1 [(15R)]
Blood Pressure Hexamethonium Rat, Blood Pressure/dose (decrease) (mean arterial pressure [5]; 100 μg/kg): -76 mm/Hg

Compound: CCCCC[C@H](O)/C=C/[C@@H]1[C@H]2C/C(=C/CCCC(=O)O)O[C@H]2C[C@H]1O [PGI2, (5Z)-9-deoxy-6,9α-epoxy-Δ^5 -PGF1]
ratio of blood pressure lowering activity and platelet aggregation inhibiting activity [1]: 1

IC50 [3]: 76 nM
Compound: O=C(O)CCC/C=C1/C[C@@H]2[C@@H](/C=C/[C@@H](O)C3CCCC3)[C@H](O)C[C@@H]2O1 [(15S)]
Blood Pressure Hexamethonium Rat, Blood Pressure/dose (decrease) (mean arterial pressure [5]; 0.2 μg/kg): -83 mm/Hg

Compound: CCCC1CCC([C@H](O)/C=C/[C@@H]2[C@H]3C/C(=C/CCCC(=O)OC)O[C@H]3C[C@H]2O)C1 (stereo partly drawn) [(5Z, 13E)-(9α,11α,15S)-6,9-epoxy-11,15-dihydroxy-15-(3 propyl)cyclopentyl-16, 17, 18, 19, 20-pentanorprosta-5,13-dienoic acid methyl ester]
blood pressure lowering activity compared to a 15R derivative (blood pressure): greater blood pressure lowering activity

Compound: O=C(O)CCC[C@@H](F)C1=C[C@@H]2[C@@H](/C=C/[C@H](O)C3CCCC3)[C@H](O)C[C@@H]2O1 [(5R,15R), 15-cyclopentyl-6,9α-Epoxy-5R-fluoro-11α,15R-dihydroxy-16,17,18,19,20-pentanorprosta-6,13E-dien-1-oic acid, sodium salt]
ED (25 mm Hg) (mean arterial pressure [2]): 0.501 mg/kg
Therapeutic Index (Blood Pressure ED25 / Anti-Aggregatory) (mean arterial pressure [2]): 217.8
IC50 [3]: 600 nM
In vivo (ADP-Thrombocytopenia) ED50 [4]: 2.3 µg/kg/min
Anti-Aggregatory in vivo (ADP-Thrombocytopenia) ED50 [4]: 2.3 µg/kg/min

IC50 [3]: 11 nM
Compound: O=C(O)CCC/C(F)=C1/C[C@@H]2[C@@H](/C=C/[C@@H](O)C3CCCC3)[C@H](O)C[C@@H]2O1 [(5F,15S)]
In vivo (ADP-Thrombocytopenia) ED50 [4]: 0.87 µg/kg/min
Blood Pressure Hexamethonium Rat, Blood Pressure/dose (decrease) (mean arterial pressure [5]; 10 μg/kg): -104 mm/Hg
